According to paper PMC11237774, “On-target, dual aminopeptidase inhibition provides cross-species antimalarial activity” (mBio, 2024):
Like-named read-outs stand apart in the source and are kept apart here.

Tests used:
[1] = molecular target: T1, human leukotriene A4 hydrolase (LTA4H) (Homo sapiens, UniProt P09960); assay: Recombinant aminopeptidase fluorescence assay (H-Ala-NHMec); type: biochemical; conditions: for inhibition at 1.25 µM: 1.25 µM compound; for inhibition at 10 µM: 10 µM compound; for inhibition at 500 µM: 500 µM compound; for inhibition at 1000 µM: 1000 µM compound
T1 construct: purchased OriGene TP307617
T1 sequence (P09960 1-611): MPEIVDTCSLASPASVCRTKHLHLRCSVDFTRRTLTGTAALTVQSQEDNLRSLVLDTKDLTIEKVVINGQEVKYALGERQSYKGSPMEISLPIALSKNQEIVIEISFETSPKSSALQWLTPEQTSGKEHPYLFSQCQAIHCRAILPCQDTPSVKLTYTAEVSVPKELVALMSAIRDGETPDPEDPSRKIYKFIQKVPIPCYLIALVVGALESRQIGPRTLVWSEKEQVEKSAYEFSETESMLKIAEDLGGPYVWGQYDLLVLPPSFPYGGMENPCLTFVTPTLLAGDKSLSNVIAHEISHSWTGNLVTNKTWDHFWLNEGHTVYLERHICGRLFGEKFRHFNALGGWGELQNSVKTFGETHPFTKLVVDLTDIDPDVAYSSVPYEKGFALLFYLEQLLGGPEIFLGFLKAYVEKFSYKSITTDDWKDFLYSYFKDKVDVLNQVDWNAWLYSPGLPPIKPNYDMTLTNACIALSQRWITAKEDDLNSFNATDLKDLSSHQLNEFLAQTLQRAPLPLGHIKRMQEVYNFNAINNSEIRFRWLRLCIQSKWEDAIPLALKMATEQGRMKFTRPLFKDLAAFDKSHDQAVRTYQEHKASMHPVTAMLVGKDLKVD
Method: (§1) Inhibition of aminopeptidase activity assays were performed against nine aminopeptidases: the M1 alanyl and M17 leucyl aminopeptidases from P. falciparum (PfA-M1; PfA-M17), P. vivax (Pv-M1; Pv-M17), and P. berghei (Pb-M1; Pb-M17), and three human M1 homologs: LTA4H (OriGene TP307617), ERAP1 (OriGene TP314469), and ERAP2 (Creative BioMart ERAP2-304H). The Plasmodium enzymes were produced recombinantly as described previously ([16], [17]), and the human recombinant enzymes were purchased from commercial suppliers as indicated.
(§2) Reactions were measured at 37°C in white 384-well plates in a total volume of 25 or 50 µL using a spectrofluorimeter (BMG FLUOstar) with excitation at 355 nm and emission at 460 nm. The fluorescence signal was continuously monitored until a final steady-state velocity, v, was obtained. Inhibition constants were calculated from biological triplicates made from three different protein preparations.
(§3) Substrate concentrations were selected to allow sensitive detection of enzyme activity while not exceeding the Km for each enzyme. A compound concentration range was selected to obtain a complete inhibition curve (0%–100 %) in biological triplicate. Where possible, the Ki values were calculated by plotting the initial rates versus inhibitor concentration and fitting to the Morrison equation for tight-binding inhibitors in GraphPad Prism (V.8.4.1; non-linear regression method).

[2] = molecular target: T2, ERAP1 (Homo sapiens, UniProt Q9NZ08); assay: Recombinant aminopeptidase fluorescence assay (H-Leu-NHMec); type: biochemical; conditions: for inhibition at 1.25 µM: ERAP1, 1.25 µM compound; for inhibition at 10 µM: ERAP1, 10 µM compound; for inhibition at 500 µM: ERAP1, 500 µM compound; for inhibition at 1000 µM: ERAP1, 1000 µM compound
T2 construct: purchased OriGene TP314469
Method: as §1
as §2, with “The concentration of H-Leu-NHMec in the assay was held constant for each enzyme and ranged from 10 to 100 µM, depending on the enzyme. Reactions” for “Reactions”
as §3

[3] = molecular target: T3, ERAP2 (Homo sapiens, UniProt Q6P179); assay: as above; type: biochemical; conditions: for inhibition at 1.25 µM: ERAP2, 1.25 µM compound; for inhibition at 10 µM: ERAP2, 10 µM compound; for inhibition at 500 µM: ERAP2, 500 µM compound; for inhibition at 1000 µM: ERAP2, 1000 µM compound
T3 construct: purchased Creative BioMart ERAP2-304H
Method: as §1
as §2, with “The concentration of H-Leu-NHMec in the assay was held constant for each enzyme and ranged from 10 to 100 µM, depending on the enzyme. Reactions” for “Reactions”
as §3

[4] = molecular target: Pb-M1 (Plasmodium berghei, UniProt A0A509ATR4); assay: as above; type: biochemical
Method: as §1
as §2, with “The concentration of H-Leu-NHMec in the assay was held constant for each enzyme and ranged from 10 to 100 µM, depending on the enzyme. Reactions” for “Reactions”
as §3

[5] = system: PfNF54-s16-GFP early (I–III) stage gametocytes; assay: Image-based gametocyte viability assay; type: cell-based, P. falciparum; conditions: Plasmodium falciparum; stages I–III, 72 h; read-out: IC50 Early-stage Gametocytes (mean ± SD)
Method: Viability assays were performed as described previously ([32], [33]) against PfNF54-s16-GFP early(I–III), late (IV–V), and mature (V) stage gametocytes. Gametocytes were assessed at the appropriate time points following gametogenesis; early stage (day 2), late stage (day 8), and mature stage (day 12). Compounds diluted in 4% DMSO were transferred into 384-well imaging plates; gametocytes prepared as described previously (35) were added, and plates were incubated for 72 h in 5% CO2, 5% O2, and 60% humidity at 37°C. After 72 h incubation, 5 µL of MitoTracker Red CMH2XRos in phosphate buffered saline (PBS) was added per well, and plates were incubated overnight. Image acquisition and analysis were undertaken on the Opera QEHS micro-plate confocal imaging system. An Acapella-based script using the CMH2XRos fluorescent signal and the GFP-designated object quantifying viable stage-dependent parasite morphology identified gametocytes. Gametocyte viability was calculated as a percentage of the positive (5 µM puromycin) and negative (0.4% DMSO) controls. IC50 values were calculated using a 4-parameter log dose, non-linear regression analysis, with sigmoidal dose response (variable slope) curve fit using GraphPad Prism (ver 4.0). No constraints were used in the curve fit. Chloroquine, artesunate, pyronaridine, pyrimethamine, dihydroartemisinin (DHA), and methylene blue were used as control compounds. Experiments were performed as two or three biological replicates in duplicate.

[6] = system: 7G8; assay: microbe, parasite or virus in culture; type: cell-based, P. falciparum; conditions: Plasmodium falciparum, read-out: EC50 nM (mean)
Method: (§4) In vitro testing was performed using the modified [^3H]hypoxanthine incorporation assay, as previously reported ([34]). The specific mutations in the field isolates (see Table 1, top six strains) have been previously described ([35], [36]), as have the specific mutations in the laboratory-selected Dd2 parasites (see Table 1, remaining five strains) ([36]).

[7] = system: Cam3.1 (MRA1240); assay: microbe, parasite or virus in culture; type: cell-based, P. falciparum; conditions: Plasmodium falciparum, read-out: EC50 nM (mean)
Method: as §4

[8] = system: Dd2; assay: microbe, parasite or virus in culture; type: cell-based, P. falciparum; conditions: Plasmodium falciparum, DD2, read-out: EC50 nM (mean)
Method: as §4

[9] = system: NF54; assay: microbe, parasite or virus in culture; type: cell-based, P. falciparum; conditions: Plasmodium falciparum
Method: as §4

[10] = system: TM90C2B; assay: microbe, parasite or virus in culture; type: cell-based, P. falciparum; conditions: Plasmodium falciparum, read-out: EC50 nM (mean)
Method: as §4

[11] = read-out: Inhibition of aminopeptidase activity

T2 sequence (Q9NZ08 whole entry): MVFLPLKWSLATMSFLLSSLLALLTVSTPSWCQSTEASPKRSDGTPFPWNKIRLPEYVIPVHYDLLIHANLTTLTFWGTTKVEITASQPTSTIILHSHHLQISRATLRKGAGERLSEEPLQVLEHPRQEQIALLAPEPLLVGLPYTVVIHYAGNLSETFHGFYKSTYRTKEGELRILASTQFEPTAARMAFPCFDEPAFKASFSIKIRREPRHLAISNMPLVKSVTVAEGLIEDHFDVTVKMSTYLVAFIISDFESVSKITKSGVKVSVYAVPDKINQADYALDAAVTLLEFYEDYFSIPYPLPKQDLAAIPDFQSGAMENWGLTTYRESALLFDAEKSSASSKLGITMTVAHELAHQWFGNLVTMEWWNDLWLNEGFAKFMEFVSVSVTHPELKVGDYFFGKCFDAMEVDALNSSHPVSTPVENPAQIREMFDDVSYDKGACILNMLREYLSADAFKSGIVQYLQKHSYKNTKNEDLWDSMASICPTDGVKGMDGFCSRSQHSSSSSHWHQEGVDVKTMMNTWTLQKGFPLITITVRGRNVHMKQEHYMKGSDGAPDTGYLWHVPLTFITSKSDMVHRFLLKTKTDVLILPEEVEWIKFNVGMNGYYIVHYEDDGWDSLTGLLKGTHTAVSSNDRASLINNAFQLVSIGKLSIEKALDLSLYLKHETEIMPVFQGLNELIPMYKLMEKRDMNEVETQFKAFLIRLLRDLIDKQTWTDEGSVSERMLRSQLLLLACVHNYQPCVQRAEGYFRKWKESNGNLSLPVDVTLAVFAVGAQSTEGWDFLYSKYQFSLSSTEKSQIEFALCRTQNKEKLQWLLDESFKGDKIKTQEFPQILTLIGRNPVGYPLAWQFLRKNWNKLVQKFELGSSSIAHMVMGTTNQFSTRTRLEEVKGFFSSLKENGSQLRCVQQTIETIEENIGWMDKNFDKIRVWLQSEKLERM
T3 sequence (Q6P179 whole entry): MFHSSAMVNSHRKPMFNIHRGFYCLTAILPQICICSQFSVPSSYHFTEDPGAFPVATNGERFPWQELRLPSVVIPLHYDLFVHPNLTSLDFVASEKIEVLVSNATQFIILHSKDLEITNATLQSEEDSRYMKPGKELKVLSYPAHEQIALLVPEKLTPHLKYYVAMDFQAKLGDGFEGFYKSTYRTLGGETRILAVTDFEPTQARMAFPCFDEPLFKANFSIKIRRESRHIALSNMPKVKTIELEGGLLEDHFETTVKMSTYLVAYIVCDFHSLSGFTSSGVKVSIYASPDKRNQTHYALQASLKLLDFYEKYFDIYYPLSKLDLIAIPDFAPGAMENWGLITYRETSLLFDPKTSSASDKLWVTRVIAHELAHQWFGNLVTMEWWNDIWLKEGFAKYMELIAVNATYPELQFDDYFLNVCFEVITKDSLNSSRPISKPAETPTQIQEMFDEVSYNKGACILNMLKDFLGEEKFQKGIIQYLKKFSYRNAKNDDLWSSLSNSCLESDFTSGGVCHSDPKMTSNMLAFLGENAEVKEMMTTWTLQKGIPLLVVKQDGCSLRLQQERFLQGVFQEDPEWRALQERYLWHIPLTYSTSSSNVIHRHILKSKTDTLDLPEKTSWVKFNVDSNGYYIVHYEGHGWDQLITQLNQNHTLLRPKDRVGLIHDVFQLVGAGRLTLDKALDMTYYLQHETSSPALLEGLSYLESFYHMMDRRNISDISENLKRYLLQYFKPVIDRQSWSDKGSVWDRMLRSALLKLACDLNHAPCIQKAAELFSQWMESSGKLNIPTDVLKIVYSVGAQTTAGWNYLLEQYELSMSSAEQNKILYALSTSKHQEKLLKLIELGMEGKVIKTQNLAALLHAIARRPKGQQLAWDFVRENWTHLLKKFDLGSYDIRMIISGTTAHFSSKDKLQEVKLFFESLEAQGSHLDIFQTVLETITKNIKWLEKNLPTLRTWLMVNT
Sequence of Pb-M1 (A0A509ATR4 entry or part of it): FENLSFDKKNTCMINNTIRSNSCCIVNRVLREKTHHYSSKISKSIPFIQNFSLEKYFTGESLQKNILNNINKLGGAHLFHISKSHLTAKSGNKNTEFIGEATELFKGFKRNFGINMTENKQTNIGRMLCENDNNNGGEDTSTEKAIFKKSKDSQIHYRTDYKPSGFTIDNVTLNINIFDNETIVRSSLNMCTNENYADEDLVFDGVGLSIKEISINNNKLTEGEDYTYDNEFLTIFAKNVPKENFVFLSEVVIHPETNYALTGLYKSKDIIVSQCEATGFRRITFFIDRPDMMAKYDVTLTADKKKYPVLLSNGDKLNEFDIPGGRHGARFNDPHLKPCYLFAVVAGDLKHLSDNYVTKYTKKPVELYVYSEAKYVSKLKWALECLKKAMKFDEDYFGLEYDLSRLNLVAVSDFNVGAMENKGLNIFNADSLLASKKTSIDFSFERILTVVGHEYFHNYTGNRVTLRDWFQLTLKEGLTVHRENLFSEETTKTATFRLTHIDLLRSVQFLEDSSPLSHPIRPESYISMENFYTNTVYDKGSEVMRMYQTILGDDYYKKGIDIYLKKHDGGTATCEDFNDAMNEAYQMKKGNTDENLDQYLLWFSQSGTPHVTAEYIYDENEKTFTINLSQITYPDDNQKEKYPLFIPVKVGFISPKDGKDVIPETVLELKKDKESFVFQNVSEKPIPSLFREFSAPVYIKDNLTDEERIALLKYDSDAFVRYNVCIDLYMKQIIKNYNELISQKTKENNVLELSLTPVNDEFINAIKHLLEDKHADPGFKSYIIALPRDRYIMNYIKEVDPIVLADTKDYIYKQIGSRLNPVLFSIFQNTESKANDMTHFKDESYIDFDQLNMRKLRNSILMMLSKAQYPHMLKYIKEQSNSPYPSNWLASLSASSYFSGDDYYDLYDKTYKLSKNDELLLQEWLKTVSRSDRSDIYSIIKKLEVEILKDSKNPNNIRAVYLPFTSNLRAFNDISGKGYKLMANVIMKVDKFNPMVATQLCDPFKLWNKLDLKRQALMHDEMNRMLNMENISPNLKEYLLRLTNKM

CC(C)(C)CC(=O)NC(C(=O)NO)c1ccc(-c2cc(F)c(F)c(F)c2)cc1 (stereo not drawn) [MMV1557817, N-(2-(hydroxyamino)−2-oxo-1-(3′,4′,5′-trifluoro-[1,1′-biphenyl]-4-yl)ethyl)-3,3-dimethylbutanamide]
inhibition at 1.25 µM [1]: 18%
inhibition at 10 µM [1]: 16%
inhibition at 500 µM [1]: 71%
inhibition at 1000 µM [1]: 87%
inhibition at 1.25 µM [2]: 0%
inhibition at 10 µM [2]: 0%
inhibition at 500 µM [2]: 75%
inhibition at 1000 µM [2]: 98%
inhibition at 1.25 µM [3]: 7%
inhibition at 10 µM [3]: 0%
inhibition at 500 µM [3]: 99.1%
inhibition at 1000 µM [3]: 100%
Ki [4]: 0.002 ± 0.0002 µM
inhibition at 1.25 µM [4, 11]: 94%
inhibition at 10 µM [4, 11]: 100%
IC50 [5]: 0.099 µM
EC50 [6]: 28 nM
EC50 [7]: 23 nM
EC50 [8]: 23 nM
EC50 ([9]; NF54, read-out: unbound EC50): 3.4 nM
EC50 ([9]; NF54, sensitive strain, read-out: EC50 nM (mean)): 22 nM
EC50 [10]: 21 nM

C[C@H]1[C@H](OC(=O)CCC(=O)O)O[C@@H]2O[C@@]3(C)CC[C@H]4[C@H](C)CC[C@@H]1[C@@]24OO3 [artesunate]
inhibition at 1.25 µM [1]: 0%
inhibition at 10 µM [1]: 12.8%
inhibition at 500 µM [1]: 20.2%
inhibition at 1000 µM [1]: 36%
inhibition at 1.25 µM [2]: 0%
inhibition at 10 µM [2]: 0%
inhibition at 500 µM [2]: 0%
inhibition at 1000 µM [2]: 0%
inhibition at 1.25 µM [3]: 0%
inhibition at 10 µM [3]: 0%
inhibition at 500 µM [3]: 0%
inhibition at 1000 µM [3]: 0%
inhibition at 10 µM ([4]; Pb-M1, 10 µM compound, read-out: Inhibition of aminopeptidase activity): 12.8%
inhibition at 1.25 µM [4, 11]: 0%
inhibition at 500 µM [4, 11]: 81.3%
inhibition at 1000 µM [4, 11]: 78.2%
IC50 [5]: 0.016 ± 0.005 µM
